Tested on: switchgrass "Alamo"
Experiment: Sugar content of switchgrass after isoxaben (Example 6)
Assay type: in vivo
Conditions: 1120 g ai/ha + 1% v/v crop oil concentrate POST; harvested 8 weeks after application; % of fresh weight basis
Description: Switchgrass was harvested 8 weeks after application and three replicates were analyzed compared with an untreated check. Sugar content was assessed on a percentage of the fresh weight and values were converted to a percentage of values derived from the untreated control. Isoxaben increased fructose by 44%, glucose by 33%, and total sugars by 38% in comparison to the untreated check. Switchgrass is currently under evaluations as a biofuels crop whereby enhanced sugar output per acre is desired.

CCC(C)(CC)c1cc(NC(=O)c2c(OC)cccc2OC)on1 [Isoxaben, isoxaben]
fructose increase in comparison to the untreated check: 44%
glucose increase in comparison to the untreated check: 33%
total sugars increase in comparison to the untreated check: 38%
